The text below walks through data of patent publication US20260183407A1, “DYRK/CLK PROTACS AND USES THEREOF” (Arizona Board of Regents on Behalf of the University of …, priority 2022, published 2026).

Molecules are shown by their SMILES. Where only a bound is given, the exact number is not on record here.

The target of assay [1] is T1, DYRK1A (Homo sapiens, UniProt Q13627).
T1 construct: purchased Eurofins; host or cells: E. coli BL21-derived (T7 phage display) or HEK-293
Put plainly: HiBiT split luciferase assay of targeted degradation of DYRK1A in Flp-In T-REx 293 cells. The format is cell-based. The settings on record: 300 nM compound, 24 h, HiBiT-tagged DYRK1A in Flp-In T-REx 293 cells, normalized to vehicle; read-out: Relative Degradation at 300 nM DYRK1A.

Assay [2] concerns the target T2, DYRK1B (Homo sapiens, UniProt Q9Y463).
T2 construct: purchased Eurofins; host or cells: E. coli BL21-derived (T7 phage display) or HEK-293
Briefly: HiBiT split luciferase assay of targeted degradation of DYRK1B in Flp-In T-REx 293 cells. The format is cell-based. The settings on record: 300 nM compound, 24 h, HiBiT-tagged DYRK1B in Flp-In T-REx 293 cells, normalized to vehicle; read-out: Relative Degradation at 300 nM DYRK1B. The source says: The Flp-In T-REx 293 Cell Line and the pcDNA5/FRT/TO vector (Invitrogen) were used to generate stable cell clones for tetracyclin-inducible expression of DYRK1A and DYRK1B. These cells contain a single stably integrated Flp recognition target (FRT) site, which allows for site-specific integration of the expression cassette by the Flp (Flippase) recombinase. DYRK1 constructs were designed to contain a C-terminal HiBiT tag for quantitative detection of HiBiT-tagged proteins in cellular lysates with the help a split luciferase assay (Nano-Glo HiBiT Lytic Detection System, Promega). To monitor the targeted degradation of DYRK1A or DYRK1B, cells were seeded in 96-well plates (10,000 cells/per well) and treated with doxycyclineinal concentration 2 μg/ml) to induce DYRK1 expression. Compounds with presumed PROTAC activity were administered 24 h after seeding. After further incubation for 24 h, cells were grossly and microscopically inspected for overt toxicity. Cells were lysed in 100 μL ice-cold passive lysis buffer (PLB, Promega) by orbital shaking (30 min on ice) before lysates were centrifuged in PCR tube (20 min 20,000 g, RT). A 10 μl aliquot of the supernatant was subjected to the HiBiT lytic assay. Luminescence was quantified in an Orion Microplate luminometer (Berthold Detection System, Germany). All compounds were tested in duplicate or triplicate wells (technical replicates) and at least two independent experiments. Relative degradation was calculated by normalization to vehicle-treated control samples.

Assay [3] deals with T1, DYRK1A. Briefly: KdELECT kinase binding assay (Eurofins), DYRK1A. To be noted: 11-point 3-fold dilution series, qPCR readout; read-out: Binding Affinity (Kd) DYRK1A. Background: Quantitative PCR measures a nucleic acid by following its amplification.
The target of assay [4] is T2, DYRK1B. Put plainly: KdELECT kinase binding assay (Eurofins), DYRK1B. The settings on record: 11-point 3-fold dilution series, qPCR readout; read-out: Binding Affinity (Kd) DYRK1B.

T2 sequence (Q9Y463 whole entry, species assumed): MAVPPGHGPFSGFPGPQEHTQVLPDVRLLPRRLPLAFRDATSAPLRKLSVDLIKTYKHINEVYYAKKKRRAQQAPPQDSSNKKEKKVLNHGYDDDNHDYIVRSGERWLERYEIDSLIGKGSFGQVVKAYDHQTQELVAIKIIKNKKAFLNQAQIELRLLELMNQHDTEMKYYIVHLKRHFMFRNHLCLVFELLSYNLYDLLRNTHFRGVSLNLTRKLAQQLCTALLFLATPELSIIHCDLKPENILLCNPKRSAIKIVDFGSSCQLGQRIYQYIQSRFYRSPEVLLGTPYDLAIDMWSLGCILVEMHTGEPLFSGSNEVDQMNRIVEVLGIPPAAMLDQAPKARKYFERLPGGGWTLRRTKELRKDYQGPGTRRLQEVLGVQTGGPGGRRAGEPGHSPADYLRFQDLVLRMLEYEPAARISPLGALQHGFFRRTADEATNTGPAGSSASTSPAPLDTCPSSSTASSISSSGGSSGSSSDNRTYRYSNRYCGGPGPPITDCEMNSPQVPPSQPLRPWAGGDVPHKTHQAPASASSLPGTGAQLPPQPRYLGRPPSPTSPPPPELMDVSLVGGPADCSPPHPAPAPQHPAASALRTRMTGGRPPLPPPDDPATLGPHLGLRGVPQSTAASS

The Kd is the concentration at which binding is half-saturated. For the compound `Cc1nc2ccc(-c3ccnc(N)c3)nc2n1-c1ccc(N2C[C@@H]3C[C@H]2CN3CC#Cc2ccc(N3CCC(C(=O)N4CCC(n5cc(CNc6cccc7c6C(=O)N(C6CCC(=O)NC6=O)C7=O)cn5)CC4)CC3)nc2)c(F)c1` (stereo partly drawn) [Compound 20, 4-(((1-(1-(1-(5-(3-((1S,4S)-5-(4-(5-(2-aminopyridin-4-yl)-2-methyl-3H-imidazo[4,5-b]pyridin-3-yl)-2-fluorophenyl)-2,5-diazabicyclo[2.2.1]heptan-2-yl)prop-1-yn-1-yl)pyridin-2-yl)piperidine-4-carbonyl)piperidin-4-yl)-1H-pyrazol-4-yl)methyl)amino)-2-(2,6-dioxopiperidin-3-yl)isoindoline-1,3-dione], the inhibition at 0.3 µM on DYRK1A [1] is 30 to 60%; at DYRK1B [2] it was less than 30%. Also, the Kd at DYRK1A [3] was less than 0.01 µM; at DYRK1B [4], 0.01 to 0.1 µM.
The like results for `Cc1nc2ccc(-c3ccnc(N)c3)nc2n1-c1ccc(N2CCN(CCC#Cc3ccc(N4CCC(C(=O)N5CCC(n6cc(CNc7cccc8c7C(=O)N(C7CCC(=O)NC7=O)C8=O)cn6)CC5)CC4)nc3)CC2)c(F)c1` (stereo not drawn) [Compound 19, 4-(((1-(1-(1-(5-(4-(4-(4-(5-(2-aminopyridin-4-yl)-2-methyl-3H-imidazo[4,5-b]pyridin-3-yl)-2-fluorophenyl)piperazin-1-yl)but-1-yn-1-yl)pyridin-2-yl)piperidine-4-carbonyl)piperidin-4-yl)-1H-pyrazol-4-yl)methyl)amino)-2-(2,6-dioxopiperidin-3-yl)isoindoline-1,3-dione] were, in that order, greater than 60%, greater than 50%, 0.01 to 0.1 µM and 0.01 to 0.1 µM.
`Cc1nc2ccc(-c3ccnc(N)c3)nc2n1-c1ccc(N2CCN(CCOCCOCCOCCOCCNc3cccc4c3C(=O)N(C3CCC(=O)NC3=O)C4=O)CC2)c(F)c1` (stereo not drawn) [Compound 7, 4-((14-(4-(4-(5-(2-aminopyridin-4-yl)-2-methyl-3H-imidazo[4,5-b]pyridin-3-yl)-2-fluorophenyl)piperazin-1-yl)-3,6,9,12-tetraoxatetradecyl)amino)-2-(2,6-dioxopiperidin-3-yl)isoindoline-1,3-dione, N,N-Diisopropylethylamine]: the inhibition at 0.3 µM lay within 30 to 60% on DYRK1A [1] and 30 to 50% at DYRK1B [2]. Also, the Kd on DYRK1A [3] and on DYRK1B [4] was less than 0.01 µM each time.
As to `Cc1nc2ccc(-c3ccnc(N)c3)nc2n1-c1ccc(CN2CCN(CC#Cc3ccc(N4CCC(C(=O)N5CCC(n6cc(CNc7cccc8c7C(=O)N(C7CCC(=O)NC7=O)C8=O)cn6)CC5)CC4)nc3)CC2)cc1` (stereo not drawn) [Compound 25, 4-(((1-(1-(1-(5-(3-(4-(4-(5-(2-aminopyridin-4-yl)-2-methyl-3H-imidazo[4,5-b]pyridin-3-yl)benzyl)piperazin-1-yl)prop-1-yn-1-yl)pyridin-2-yl)piperidine-4-carbonyl)piperidin-4-yl)-1H-pyrazol-4-yl)methyl)amino)-2-(2,6-dioxopiperidin-3-yl)isoindoline-1,3-dione], the inhibition at 0.3 µM at DYRK1A [1] is greater than 60%; at DYRK1B [2], 30 to 50%. In addition, the Kd on DYRK1A [3] and at DYRK1B [4] was less than 0.01 µM each time.
Regarding `Cc1nc2ccc(-c3ccnc(N)c3)nc2n1-c1ccc(N2CCN(CC#Cc3ccc(N4CCC(C(=O)N5CCC(n6cc(CNc7cccc8c7C(=O)N(C7CCC(=O)NC7=O)C8=O)cn6)CC5)CC4)nc3)CC2)c(C(F)(F)F)c1` (stereo not drawn) [Compound 24, 4-(((1-(1-(1-(5-(3-(4-(4-(5-(2-aminopyridin-4-yl)-2-methyl-3H-imidazo[4,5-b]pyridin-3-yl)-2-(trifluoromethyl)phenyl)piperazin-1-yl)prop-1-yn-1-yl)pyridin-2-yl)piperidine-4-carbonyl)piperidin-4-yl)-1H-pyrazol-4-yl)methyl)amino)-2-(2,6-dioxopiperidin-3-yl)isoindoline-1,3-dione], the inhibition at 0.3 µM on DYRK1A [1] is greater than 60%; at DYRK1B [2] it was less than 30%. The Kd at DYRK1A [3] and on DYRK1B [4] was 0.01 to 0.1 µM throughout.
With `Cc1nc2ccc(-c3ccnc(N)c3)nc2n1-c1ccc(N2CCN(CC#Cc3cncc(N4CCC(C(=O)N5CCC(n6cc(CNc7cccc8c7C(=O)N(C7CCC(=O)NC7=O)C8=O)cn6)CC5)CC4)n3)CC2)c(F)c1` (stereo not drawn) [Compound 32, 4-(((1-(1-(1-(6-(3-(4-(4-(5-(2-aminopyridin-4-yl)-2-methyl-3H-imidazo[4,5-b]pyridin-3-yl)-2-fluorophenyl)piperazin-1-yl)prop-1-yn-1-yl)pyrazin-2-yl)piperidine-4-carbonyl)piperidin-4-yl)-1H-pyrazol-4-yl)methyl)amino)-2-(2,6-dioxopiperidin-3-yl)isoindoline-1,3-dione], the results for the inhibition at 0.3 µM on DYRK1A [1] and on DYRK1B [2] were greater than 60% and greater than 50%, respectively. Moreover, the Kd on DYRK1A [3] and on DYRK1B [4] was 0.01 to 0.1 µM in each case.
